Experimental data as given in patent US10520493B2, “Method for assessment of neural function by establishing analysis module” (NATIONAL CHENG KUNG UNIVERSITY, priority 2015, dated 2019).

Tested on: primarily cultured cortical neurons
Assay: High-content image analysis of the effect of chemotherapy drugs on primarily cultured neurons (neuron number, synaptic puncta number, neurite length)
Details: cells cultured for 10 days, drug added for 24 hours, FIG. 7-9; for neurotoxicity (effect on the neuron number, the synaptic puncta number and the neurite length): MAP2/synaptophysin/Hoechst staining
Experimental: To analyze neural function accurately, MetaXpress 3.1 software (“MetaXpress® Image Acquisition and Analysis Software (Analysis Guide)” was used on the website ftp://ftp.meta.moleculardevices.com/pub/uic/software/MX31R13/HelpDocs/MetaXpress/MetaXpress_3_1_Analysis_Guide.pdf) to design an analysis module. An automatic analysis was performed according to the following optimal indicators (a)˜(c) for image analysis with 32 steps.
The cultured cells including neurons and glial cells were firstly separated according to the area and the fluorescence intensity of the nucleus stained by Hoechst dye together with MAP2 antibody.
After neurons stained with MAP2 were selected, the area of neuronal cell body, the length and the number of processes and branches of the neurites were calculated to verify outgrowth of the neurites.
Numbers of synaptic puncta of the neurons were calculated according to the area of the neurites labeled with fluorescence mentioned above to verify formation of the synaptic puncta of the neurons.
Cerebral cortex was obtained from 0˜1 day old B6 mice pup and meninges were removed. DMEM/F12 medium without serum was used to triturate the cortex tissue. Then, the DMEM/F12 medium without serum was refilled to 5 mL, mixed evenly with 0.5 mL trypsin, and placed at 37° C. for 5 minutes. Then the mixture with 1 mL FBS was filtered through a cell strainer. After a centrifugation at 3,000 rpm for 10 min, the supernatant was removed and precipitated cells were added to a medium required for nerve cell culture. The medium was prepared by adding B-27® Supplement, 0.5 mM L-glutamine, and 0.5% penicillin streptomycin to Neurobasal® A medium.
(2) Black multi-well microplates with clear bottom were used for nerve cell culture. Each well was coated with 70 μL poly-D-lysine or poly-L-lysine. Cells were seeded in a density of 2.8×10^4/well. After cells were cultured for 10 days, chemotherapy drugs listed in the table 1 was respectively added to react with cells for 24 hours. Then cells were fixed with 4% polyformaldehyde for 10 min and washed with PBS twice for 5 min each. Then, each well was added with 1 M glycine reacting for 10 min and wash with PBS twice for 5 min each. After cells were added with 0.05% Triton X-100 reacting for 20 min and washed with PBS twice for 5 min each, cell were blocked with 4% BSA for 1 hour and then stained with primary antibodies including anti-MAP2 antibody (MyBioSource; MBS502140) and anti-synaptophysin antibody (Abcam; ab32127) for 12-16 hours. Next, cells were washed twice with PBST (10 min each) and incubated with fluorescence-conjugated secondary antibodies including Alexa Fluor 488 (Jackson ImmunoResearch; 703-546-155) and Alexa Fluor 647 (molecular probes; A31573) and Hoechst 33258 for 1 hour. At last, cells were washed twice with PBST (10 min each) and added with PBS for further image acquisition and analysis.
(3) Fluorescence microscopy system and method mentioned in the above embodiment were used to capture images at the wavelength of DAPI, FITC, and Cy5 for image analysis of the cultured cells. The images were enlarged 200 times (200×) and saved automatically after the shooting for analysis.

Row | SMILES | neurotoxicity (effect on the neuron number, the synaptic puncta number and the neurite length) | neurotoxicity compared with cisplatin (compared with cisplatin)
1 | CC[C@]1(O)C[C@H]2CN(CCc3c([nH]c4ccccc34)[C@@](C(=O)OC)(c3cc4c(cc3OC)N(C=O)[C@H]3[C@@](O)(C(=O)OC)[C@H](OC(C)=O)[C@]5(CC)C=CCN6CC[C@]43[C@@H]65)C2)C1 [vincristine, Vincristine] | severe neurotoxicity | 
2 | Nc1ccn([C@@H]2O[C@H](CO)[C@@H](O)C2(F)F)c(=O)n1 [Gemcitabine] | less neurotoxicity | 
3 | N.N.O=C([O-])C1(C(=O)[O-])CCC1.[Pt+2] [carboplatin, Carboplatin] |  | less neurotoxicity
4 | CC(=O)O[C@H]1C(=O)[C@@]2(C)[C@H]([C@H](OC(=O)c3ccccc3)[C@]3(O)C[C@H](OC(=O)[C@H](O)[C@@H](NC(=O)c4ccccc4)c4ccccc4)C(C)=C1C3(C)C)[C@]1(OC(C)=O)CO[C@@H]1C[C@@H]2O [paclitaxel, Paclitaxel] | severe neurotoxicity | 
5 | COc1cccc2c1C(=O)c1c(O)c3c(c(O)c1C2=O)C[C@@](O)(C(=O)CO)C[C@@H]3O[C@H]1C[C@H](N)[C@H](O)[C@H](C)O1 [doxorubicin, Doxorubicin] | less neurotoxicity | 
